Assay results as given in patent publication US6159979A, “Bicyclic aryl or a bicyclic heterocyclic ring containing compounds having a combined 5HT1A, 5HT1B and 5HT1D receptor antagonistic activity” (SmithKline Beecham p.l.c., priority 1997, dated 2000).

What was measured:
5-HT1A receptors = molecular target: T1, 5-HT1A receptors (Homo sapiens, UniProt P08908); assay: 5-HT1A receptor binding ([3H]-8-OH DPAT, HEK 293 cell homogenate); conditions: HEK 293 cells expressing 5-HT1A receptors; [3H]-8-OH DPAT (1nM); pH 7.7, 37° C., 45 minutes; read-out: pKi values at 5-HT1A (converted)
T1 construct: expressed in transfected cells; host or cells: HEK 293
T1 sequence (P08908 1-422): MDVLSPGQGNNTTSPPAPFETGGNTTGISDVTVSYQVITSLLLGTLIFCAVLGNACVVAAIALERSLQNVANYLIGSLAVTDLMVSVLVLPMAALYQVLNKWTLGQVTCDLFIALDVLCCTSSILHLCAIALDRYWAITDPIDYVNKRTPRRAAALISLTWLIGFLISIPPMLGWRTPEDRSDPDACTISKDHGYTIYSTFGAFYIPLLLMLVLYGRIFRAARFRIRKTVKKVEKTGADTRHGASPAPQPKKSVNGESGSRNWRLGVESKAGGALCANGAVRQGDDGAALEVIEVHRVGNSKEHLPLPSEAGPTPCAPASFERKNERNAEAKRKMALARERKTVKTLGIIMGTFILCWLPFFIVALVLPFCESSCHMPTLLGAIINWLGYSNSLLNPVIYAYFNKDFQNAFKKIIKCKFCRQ
Method: (§1) 5-HT1A, 5-HT1B and 5-HT1D Receptor Binding
(§2) HEK 293 cells expressing 5-HT1A receptors (4×10^7 /ml) were homogenised in Tris buffer and stored in 1 ml aliquots. CHO cells expressing 5-HT1B receptors (4×10^7 cells/ml) were homogenised in Tris buffer and stored in 1.5 ml aliquots. CHO cells expressing 5-HT1D receptors (0.563×10^8 /ml) were homogenised in Tris buffer and stored in 1 ml aliquots.
(§3) 0.4 ml of a cell suspension was incubated with [^3 H]-5-HT (4nM) for 5-HT1B/1D receptors and [^3 H]-8-OH DPAT (1nM) for 5-HT1A receptors in Tris Mg HCl buffer (pH 7.7) and test drug, at 37° C. for 45 minutes. Each test drug was tested at 10 concentrations (0.01 mM to 0.3 nM final concentration), with non-specific binding defined using 0.01 mM 5-HT. The total assay volume was 0.5 ml. Incubation was stopped by rapid filtration using a Packard Filtermate (filters pre-soaked in 0.3% polyethylenimine) and radioactivity measured by Topcount scintillation counting. pKi values were calculated from the IC50 generated by an iterative least squares curve fitting programme.

5-HT1B receptors = molecular target: T2, 5-HT1B receptors (Homo sapiens, UniProt P28222); assay: 5-HT1B receptor binding ([3H]-5-HT, CHO cell homogenate); conditions: CHO cells expressing 5-HT1B receptors; [3H]-5-HT (4nM); pH 7.7, 37° C., 45 minutes; read-out: pKi values at 5-HT1B (converted)
T2 construct: expressed in transfected cells; host or cells: CHO
Method: as §1, §2, §3

5-HT1D receptors = molecular target: T3, 5-HT1D receptors (Homo sapiens, UniProt P28221); assay: 5-HT1D receptor binding ([3H]-5-HT, CHO cell homogenate); conditions: CHO cells expressing 5-HT1D receptors; [3H]-5-HT (4nM); pH 7.7, 37° C., 45 minutes; read-out: pKi values at 5-HT1D (converted)
T3 construct: expressed in transfected cells; host or cells: CHO
Method: as §1, §2, §3

Measured: Ki

T2 sequence (P28222 whole entry): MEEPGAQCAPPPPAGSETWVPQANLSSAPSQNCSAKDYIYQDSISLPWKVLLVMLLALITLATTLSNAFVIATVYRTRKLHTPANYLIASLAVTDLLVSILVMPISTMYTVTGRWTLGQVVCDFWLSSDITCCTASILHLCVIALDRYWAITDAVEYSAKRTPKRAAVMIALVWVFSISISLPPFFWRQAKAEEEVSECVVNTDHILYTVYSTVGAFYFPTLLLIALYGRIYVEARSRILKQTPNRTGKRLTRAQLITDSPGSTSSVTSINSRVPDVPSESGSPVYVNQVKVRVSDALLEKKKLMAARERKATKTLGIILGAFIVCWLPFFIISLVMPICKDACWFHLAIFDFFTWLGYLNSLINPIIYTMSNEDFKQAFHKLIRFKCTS
T3 sequence (P28221 whole entry): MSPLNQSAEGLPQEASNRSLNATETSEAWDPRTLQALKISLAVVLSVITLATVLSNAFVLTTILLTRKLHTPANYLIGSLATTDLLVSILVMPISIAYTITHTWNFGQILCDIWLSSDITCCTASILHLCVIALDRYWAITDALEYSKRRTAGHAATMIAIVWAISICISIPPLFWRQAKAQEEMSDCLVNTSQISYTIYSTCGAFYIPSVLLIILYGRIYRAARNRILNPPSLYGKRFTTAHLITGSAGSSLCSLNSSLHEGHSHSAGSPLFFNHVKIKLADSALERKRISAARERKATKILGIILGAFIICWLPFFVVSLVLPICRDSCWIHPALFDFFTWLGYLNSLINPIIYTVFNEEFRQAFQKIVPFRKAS

COc1ccc(NC(=O)Cc2ccc(-c3ccncc3)c3ccccc23)cc1N1CCN(C)CC1 [Example 10, N-[4-Methoxy-3-(4-methylpiperazin-1-yl)phenyl]-4-(pyridin-4-yl)naphth-1-ylacetamide]
< 10 nM: all assays above

CN1CCN(c2cc(NC(=O)Nc3ccc(-c4ccncc4)c4ccccc34)ccc2Cl)CC1 [Example 11, N-[4-Chloro-3-(4-methylpiperazin-1-yl)phenyl]-N'-[4-(pyridin-4-yl)naphth-1-yl]urea]
< 10 nM: all assays above

COc1ccc(NC(=O)Cc2ccc(-c3cccnc3)c3ccccc23)cc1N1CCN(C)CC1 [Example 28, N-[4-Methoxy-3-(4-methylpiperazin-1-yl)phenyl]-4-(pyridin-3-yl)naphth-1-ylacetamide]
< 10 nM: all assays above

COc1ccc(NC(=O)Nc2cccc3c(-c4ccccc4)cccc23)cc1N1CCN(C)CC1 [Example 33, N-[4-Methoxy-3-(4-methylpiperazin-1-yl)phenyl]-N'-[5-phenylnaphth-1-yl]urea]
< 10 nM: all assays above

CN1CCN(c2cc(NC(=O)Cc3ccc(-c4ccncc4)c4ccccc34)ccc2Br)CC1 [Example 38, N-[4-Bromo-3-(4-methylpiperazin-1-yl)phenyl]-4-(pyridin-4-yl)naphth-1-ylacetamide]
< 10 nM: all assays above

COc1ccc(NC(=O)Nc2cccc3c(-c4cccc(C(C)=O)c4)cccc23)cc1N1CCN(C)CC1 [Example 40, N-[5-(3-Acetylphenyl)naphth-1-yl]-N'-[4-methoxy-3-(4-methylpiperazin-1-yl)phenyl]urea]
< 10 nM: all assays above
